Test results: ChEMBL document CHEMBL5532680, “Identification of a Sonically Activated Degrader of Methionine Adenosyltransferase 2A by an in Silico Approach Assisted with the Hole-Electron Analysis” (J Med Chem, 2024)
Active and inactive are the calls of the source. The rule behind the calls is not given here.

Experiments:
[1] = Half-life in ICR mouse at 10 mg/kg, po measured upto 24 hrs by LC-MS/MS analysis; format: ADME, organism-based; conditions: in vivo
[2] = biological target: T1, S-adenosylmethionine synthase isoform type-2 (Homo sapiens, UniProt P31153); assay: Induction of MAT2A degradation in human HCT-116 cells assessed as MAT2A level at 0.1 uM preincubated for 4 hrs followed by 1.0 MHz, 0.8W/cm2 ultrasound treatment for 4 mins and measured upto 24 hrs by Western blotting assay; format: cell-based; conditions: time <= 1684.0 min
Target sequence in this assay (P31153 whole entry, looked up, canonical isoform): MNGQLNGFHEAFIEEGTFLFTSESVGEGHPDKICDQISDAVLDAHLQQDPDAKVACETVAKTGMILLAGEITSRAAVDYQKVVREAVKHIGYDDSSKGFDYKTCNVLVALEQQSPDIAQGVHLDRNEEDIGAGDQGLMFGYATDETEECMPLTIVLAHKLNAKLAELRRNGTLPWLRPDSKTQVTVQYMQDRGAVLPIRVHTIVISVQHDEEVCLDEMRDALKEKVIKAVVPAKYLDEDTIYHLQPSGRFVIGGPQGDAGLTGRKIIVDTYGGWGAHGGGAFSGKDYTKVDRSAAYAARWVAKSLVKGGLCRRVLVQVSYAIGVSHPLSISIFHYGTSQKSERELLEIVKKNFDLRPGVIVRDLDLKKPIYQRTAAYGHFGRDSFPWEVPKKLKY

HCT-116 [3] = assay: Antiproliferative activity against wild type human HCT-116 cells preincubated with AG-270 followed by compound addition; format: functional, cell-based
[4] = Toxicity in BALB/c mouse xenografted with human HCT-116 cells assessed as change in liver cell nucleus shape at 100 mg/kg, po by H and E staining based assay; format: organism-based; conditions: in vivo
[5] = Drug localization in human HCT-116 cells cytoplasm assessed as bright red fluorescence at 1 uM by Hoechst 33342 staining based confocal assay; format: ADME, cell-based; conditions: hct-116, 1 µM
[6] = Cmax in BALB/c mouse at 10 mg/kg, po measured upto 24 hrs by LC-MS/MS analysis; format: ADME, organism-based; conditions: in vivo
HCT-116 [7] = assay: Antitumor activity against […] knocked out human HCT-116 cells xenografted in BALB/c mouse assessed as tumor growth inhibition at 10 mg/kg, po administered once a day followed by 4 mins sonication post 6 hrs of compound administration and measured for 3 weeks; format: functional; conditions: HCT-116, 504 h, read-out: TGI
[8] = Toxicity in BALB/c mouse xenografted with human HCT-116 cells assessed as liver damage at 10 mg/kg, po by H and E staining based assay; format: organism-based; conditions: in vivo
[9] = Tmax in ICR mouse at 10 mg/kg, po measured upto 24 hrs by LC-MS/MS analysis; format: ADME, organism-based; conditions: in vivo
HCT-116 [10] = assay: Induction of ROS generation in human HCT-116 cells assessed as fold increase at 0.1 uM preincubated for 6 hrs followed by sonication for 4 mins by DCFH-DA staining based flow cytometry analysis; format: functional; conditions: time 364 min, 6.067 h
[11] = biological target: T1, S-adenosylmethionine synthase isoform type-2; assay: Induction of MAT2A degradation in human HCT-116 cells preincubated for 4 hrs followed by 1.0 MHz, 0.8W/cm2 ultrasound treatment for 0.5 mins by Western blotting assay; format: cell-based
Target sequence in this assay (P31153 whole entry, canonical isoform): as the sequence (P31153 whole entry, looked up, canonical isoform) above

[12] = biological target: T1, S-adenosylmethionine synthase isoform type-2; assay: Inhibition of recombinant human MAT2A expressed in baculovirus infected Sf9 cells using L-methione as substrate preincubated for 15 mins followed by substrate addition and measured after 60 mins in presence of ATP by Kinase-Glo luminescent assay
Target sequence in this assay (P31153 whole entry, canonical isoform): as the sequence (P31153 whole entry, looked up, canonical isoform) above

HCT-116 [13] = assay: Antiproliferative activity against wild type human HCT-116 cells at less than 1 uM incubated for 5 days by MTT method; format: functional, cell-based; conditions: time 5.0 day
[14] = Toxicity in BALB/c mouse xenografted with human HCT-116 cells assessed as lung damage at 100 mg/kg, po by H and E staining based assay; format: organism-based; conditions: in vivo
[15] = Oral bioavailability in BALB/c mouse at 10 mg/kg measured upto 24 hrs by LC-MS/MS analysis; format: ADME, organism-based; conditions: in vivo
[16] = Toxicity in BALB/c mouse xenografted with human HCT-116 cells assessed as inflammatory cells infiltration at 50 mg/kg, po by H and E staining based assay; format: organism-based; conditions: in vivo
HCT-116 [17] = assay: Antitumor activity against […] knocked out human HCT-116 cells xenografted in BALB/c mouse assessed as tumor growth inhibition at 50 mg/kg, po administered once a day for 6 hrs and measured after 3 weeks; format: functional; conditions: HCT-116, 504 h, read-out: TGI
[18] = Biodistribution in MATP knocked out human HCT-116 cells xenografted in BALB/c mouse assessed as fluorescence intensity in lung at 10 mg/kg, po measured after 24 hrs; format: ADME, organism-based; conditions: in vivo
HCT-116 [19] = assay: Antiproliferative activity against MTAP knocked out human HCT-116 cells under 1 min sonication; format: functional, cell-based; conditions: HCT-116, 1 min
[20] = Biodistribution in […] knocked out human HCT-116 cells xenografted in BALB/c mouse assessed as fluorescence intensity in kidney at 10 mg/kg, po measured after 24 hrs; format: ADME, organism-based; conditions: in vivo
Cytochrome P450 2C9 = Cytochrome P450 2C9 (Homo sapiens, UniProt P11712); assay: Inhibition of CYP2C9 (unknown origin); format: ADME
[21] = Toxicity in BALB/c mouse xenografted with human HCT-116 cells assessed as kidney damage at 100 mg/kg, po by H and E staining based assay; format: organism-based; conditions: in vivo
HCT-116 [22] = assay: Induction of ROS generation in human HCT-116 cells at 0.001 to 1 uM incubated for 6 hrs by DCFH-DA staining based flow cytometry analysis; format: functional, cell-based; conditions: dose 0.001-1 µM
[23] = Biodistribution in […] knocked out human HCT-116 cells xenografted in BALB/c mouse assessed as fluorescence intensity in heart at 10 mg/kg, po measured after 24 hrs; format: ADME, organism-based; conditions: in vivo
[24] = Mean residence time in BALB/c mouse at 10 mg/kg, po measured upto 24 hrs by LC-MS/MS analysis; format: ADME, organism-based; conditions: in vivo
HCT-116 [25] = assay: Induction of apoptosis in MTAP knocked out human HCT-116 cells at 0.1 uM preincubated for 24 hrs followed by sonication for 4 mins by annexin V-FITC/PI staining based flow cytometry analysis relative to control; format: functional, cell-based; conditions: time 1444.0 min
[26] = biological target: Voltage-gated inwardly rectifying potassium channel KCNH2 (Homo sapiens, UniProt Q12809); assay: Inhibition of hERG by plate based patch clamp method; format: toxicity
Cytochrome P450 2D6 = Cytochrome P450 2D6 (Homo sapiens, UniProt P10635); assay: Inhibition of CYP2D6 (unknown origin); format: ADME
HCT-116 [27] = assay: Induction of apoptosis in human HCT-116 cells assessed as increase in late apoptotic cells at 0.1 uM preincubated for 24 hrs followed by sonication for 4 mins by annexin V-FITC/PI staining based flow cytometry analysis relative to control; format: functional; conditions: time 1444 min, 24.07 h
[28] = AUC in ICR mouse at 10 mg/kg, po measured upto 24 hrs by LC-MS/MS analysis; format: ADME, organism-based; conditions: in vivo
[29] = Toxicity in BALB/c mouse xenografted with human HCT-116 cells assessed as heart damage at 100 mg/kg, po by H and E staining based assay; format: organism-based; conditions: in vivo
[30] = Inhibition of uridine glucuronyl transferase (unknown origin); set-up: species or system Homo sapiens
HCT-116 [31] = assay: Antitumor activity against […] knocked out human HCT-116 cells xenografted in BALB/c mouse assessed as tumor regression at 10 mg/kg, po administered once a day followed by 4 mins sonication post 6 hrs of compound administration and measured for 3 weeks; format: functional
[32] = Tmax in BALB/c mouse at 10 mg/kg, po measured upto 24 hrs by LC-MS/MS analysis; format: ADME, organism-based; conditions: in vivo
HCT-116 [33] = assay: Antiproliferative activity against MTAP knocked out human HCT-116 cells under 4 mins sonication; format: functional, cell-based; conditions: HCT-116, 4 min
[34] = Toxicity in BALB/c mouse xenografted with human HCT-116 cells assessed as spleen damage at 10 mg/kg, po by H and E staining based assay; format: organism-based; conditions: in vivo

Voltage-gated inwardly rectifying potassium channel KCNH2, sequence (Q12809 whole entry): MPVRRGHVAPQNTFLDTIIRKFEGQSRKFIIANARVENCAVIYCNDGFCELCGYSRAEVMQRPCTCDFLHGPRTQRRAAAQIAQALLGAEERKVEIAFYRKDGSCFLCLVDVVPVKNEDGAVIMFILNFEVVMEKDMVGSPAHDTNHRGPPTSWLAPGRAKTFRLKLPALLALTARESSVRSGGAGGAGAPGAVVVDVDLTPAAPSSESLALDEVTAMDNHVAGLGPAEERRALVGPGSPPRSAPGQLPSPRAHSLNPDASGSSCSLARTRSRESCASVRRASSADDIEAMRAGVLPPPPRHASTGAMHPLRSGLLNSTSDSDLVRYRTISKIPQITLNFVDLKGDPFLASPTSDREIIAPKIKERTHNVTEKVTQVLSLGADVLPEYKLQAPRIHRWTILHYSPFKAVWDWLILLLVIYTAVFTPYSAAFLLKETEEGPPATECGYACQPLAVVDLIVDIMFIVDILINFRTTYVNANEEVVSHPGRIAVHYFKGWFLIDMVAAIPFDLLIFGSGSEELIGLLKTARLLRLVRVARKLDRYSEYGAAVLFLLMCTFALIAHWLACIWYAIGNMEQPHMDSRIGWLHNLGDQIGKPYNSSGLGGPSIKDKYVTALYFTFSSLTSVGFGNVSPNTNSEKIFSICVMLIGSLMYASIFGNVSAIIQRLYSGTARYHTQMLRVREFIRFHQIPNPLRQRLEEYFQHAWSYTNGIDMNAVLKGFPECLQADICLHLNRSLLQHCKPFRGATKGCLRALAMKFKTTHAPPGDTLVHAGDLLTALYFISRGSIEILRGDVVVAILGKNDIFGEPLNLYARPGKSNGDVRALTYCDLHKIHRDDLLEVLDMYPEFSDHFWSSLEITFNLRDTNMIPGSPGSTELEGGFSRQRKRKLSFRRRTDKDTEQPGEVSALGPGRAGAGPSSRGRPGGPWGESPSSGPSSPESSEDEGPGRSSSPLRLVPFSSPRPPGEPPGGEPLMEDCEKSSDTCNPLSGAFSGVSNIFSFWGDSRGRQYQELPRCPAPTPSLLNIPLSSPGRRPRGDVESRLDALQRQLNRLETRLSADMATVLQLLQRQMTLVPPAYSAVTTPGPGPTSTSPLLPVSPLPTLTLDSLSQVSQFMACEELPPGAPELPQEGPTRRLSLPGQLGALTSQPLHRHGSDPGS
Cytochrome P450 2D6, sequence (P10635 whole entry): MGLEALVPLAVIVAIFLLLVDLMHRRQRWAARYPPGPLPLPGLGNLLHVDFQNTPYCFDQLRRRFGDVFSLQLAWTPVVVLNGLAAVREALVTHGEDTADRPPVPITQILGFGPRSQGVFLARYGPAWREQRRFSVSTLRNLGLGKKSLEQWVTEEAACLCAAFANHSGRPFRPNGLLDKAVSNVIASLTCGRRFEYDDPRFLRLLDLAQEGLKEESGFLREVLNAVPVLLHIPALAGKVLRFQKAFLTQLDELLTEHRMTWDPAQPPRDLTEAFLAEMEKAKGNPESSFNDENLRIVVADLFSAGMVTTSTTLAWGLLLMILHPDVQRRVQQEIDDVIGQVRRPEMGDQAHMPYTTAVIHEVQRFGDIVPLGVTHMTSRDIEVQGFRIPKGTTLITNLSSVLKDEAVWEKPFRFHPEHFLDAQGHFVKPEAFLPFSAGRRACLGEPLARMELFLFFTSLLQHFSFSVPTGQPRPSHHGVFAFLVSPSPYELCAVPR
Cytochrome P450 2C9, sequence (P11712 whole entry): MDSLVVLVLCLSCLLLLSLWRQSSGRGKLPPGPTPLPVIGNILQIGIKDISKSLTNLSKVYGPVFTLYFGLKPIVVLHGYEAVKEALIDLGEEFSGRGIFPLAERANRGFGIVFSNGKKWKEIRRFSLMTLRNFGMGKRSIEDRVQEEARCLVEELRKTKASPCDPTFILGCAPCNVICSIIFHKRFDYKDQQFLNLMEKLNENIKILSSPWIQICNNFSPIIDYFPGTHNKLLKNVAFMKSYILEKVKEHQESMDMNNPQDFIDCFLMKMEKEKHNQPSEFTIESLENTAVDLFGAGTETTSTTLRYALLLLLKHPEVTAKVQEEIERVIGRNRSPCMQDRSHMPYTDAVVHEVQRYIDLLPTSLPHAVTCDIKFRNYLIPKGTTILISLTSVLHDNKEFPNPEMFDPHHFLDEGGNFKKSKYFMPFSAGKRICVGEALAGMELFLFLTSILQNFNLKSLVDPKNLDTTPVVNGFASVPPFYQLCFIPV

With `CCOc1ncc2cc(-c3ccc4c(c3)N3CCCC3CO4)c(=O)n(-c3ccc(OC(F)F)cc3)c2n1` (stereo unspecified) the half-life [1] was 2.9 h, the Activity [2] was “Active” and the Activity (HCT-116 [3]) was “inactive”. The Activity [4] was “Toxic”, the Drug uptake [5] was “Active” and the Cmax [6] was 1380 ng/mL. The inhibition in vivo at 10 mg/kg (HCT-116 [7]) was 103%, the Activity [8] was “Non-Toxic” and the Tmax [9] was 0.5 h. For the same molecule, the “fold change (FC)” value (HCT-116 [10]) was 6, the EC50 [11] was 360 nM and the IC50 [12] was 61 nM. The Activity (HCT-116 [13]) was “inactive”, the Activity [14] was “Non-Toxic” and the F [15] was 77%. The Activity [16] was “Toxic”, the inhibition in vivo at 50 mg/kg (HCT-116 [17]) was 93.5% and the Drug uptake [18] was “Active”. For the same molecule, the IC50 (HCT-116 [19]) was 79 nM, the Drug uptake [20] was “Not Active” and the IC50 (Cytochrome P450 2C9) was 31000 nM. For the same molecule, the Activity [21] was “Non-Toxic”, the Activity (HCT-116 [22]) was “Active” and the Drug uptake [23] was “Not Active”. For the same molecule, the MRT [24] was 5.1 h, the Activity (HCT-116 [25]) was “Active” and the IC50 [26] was > 50000 nM. It also gave an IC50 (Cytochrome P450 2D6) of 39000 nM, an Activity (HCT-116 [27]) of 9% and an AUC at 24 h [28] of 9710 ng·h/mL. The Activity [29] was “Non-Toxic”, the IC50 [30] was 800 nM and the Activity (HCT-116 [31]) was 31%. For the same molecule, the Tmax [32] was 1 h, the IC50 (HCT-116 [33]) was 42 nM and the Activity [34] was “Non-Toxic”.
